Results published in ChEMBL document CHEMBL1150433, “Synthesis and activity of conformationally-constrained macrocyclic norstatine-based inhibitors of HIV protease” (Bioorg Med Chem Lett, 1996).

Legend:
[1] = biological target: Human immunodeficiency virus type 1 protease (Human immunodeficiency virus 1, UniProt Q72874); experiment: Compound was evaluated for the inhibition of HIV protease
[2] = test system: MT2; experiment: Antiviral activity against […] RF infected MT-2 cells; format: functional, cell-based; conditions: Homo sapiens

SMILES | IC50 [1] [nM] | EC50 [2] [nM]
CC(C)(C)NC(=O)[C@@H]1CCCN1C(=O)[C@@H](O)[C@@H]1Cc2ccc(cc2)OCCCOc2cc3ccccc3cc2C(=O)N[C@@H](CC(N)=O)C(=O)N1 | 19 | 76
CC(C)(C)OC(=O)[C@@H]1CCCN1C[C@@H](O)[C@H](Cc1ccccc1)NC(=O)[C@H](CC(N)=O)NC(=O)c1ccc2ccccc2n1 | 23 | –
CC(C)(C)NC(=O)[C@@H]1CCCN1C(=O)[C@H](O)[C@@H]1Cc2ccc(cc2)OCCCOc2cc3ccccc3cc2C(=O)N[C@@H](CC(N)=O)C(=O)N1 | 3800 | –
